The text below walks through data of patent publication US20080182859A1 (Curis, Inc., priority 2006, published 2008).

Counter-ions that a name gives are not always drawn.

Common to all, as to format: cell-based
Assay [1] concerns sonic hedgehog pathway. The experiment in a line: Human hedgehog reporter assay Daoy-GliLuc (DGL). The settings on record: Daoy human medulloblastoma cells, Gli-luciferase reporter. Summed up: (§1)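 Stable Gli-promoter luciferase reporter lines (human HepM, Daoy; mouse S12) plated at 10,000–20,000 cells/well, switched to 0.5% FBS after 48–72 h, then given compound (1–5 μM; 11-point 1:3 dose curves) with or without octyl-modified hedgehog protein (1–5 ng/ml) for 24 h. Luminescence read; AMAX vs plate controls and EC50 derived.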

Assay [2] relates to sonic hedgehog pathway. The assay can be described thus: Hedgehog pathway Gli-luciferase reporter assay, S12 cells. The settings on record: S12 mouse embryonic mesenchymal cells. The source says: Mouse (TM3: mouse Leydig cells; S12: mouse embryonic mesenchymal cells) and human (Daoy: human medulloblastoma cell; HepM: human embryonic palatal mesenchymal cell) cell lines are used to screen small molecules for their ability to modulate the activity of the sonic hedgehog pathway (Table 1, Table 2, and Table 3). Stable hedgehog pathway reporter cell lines are established by specific antibiotic selection following transfection of a reporter plasmid containing a luciferase gene located directly downstream from the gli promoter. Consequently, any observable changes in cellular luciferase activity may be attributed to changes in sonic hedgehog pathway activity in mouse and human cells, respectively, since gli is the major by-product of this pathway. To calculate activity, we generate an eleven point dose curve for each compound using 1:3 dilutions in 96 well assay plates. Each plate tested also contains low and high control to establish maximal pathway activation so to establish/compare a percentage activation of each tested compound (AMAX) on respective plates. Also we calculate EC50 values, or a concentration where the pathway will be exactly 50% activated, for each tested compound to determine potency. In these cell lines, compounds that register >20% AMAX values are considered active.
Stable hedgehog pathway reporter cell lines are established following specific antibiotic selection following transfection of a reporter plasmid In short, typically cells are plated in MicroTiter-plates at 10,000-20,000 cells per well, in growth media (containing 10%-20% FBS). After 48-72 hrs (HGL and DGL respectively) the media in the assay plates is switched to low-serum containing media (0.5% FBS). At that time compounds are added (at 1-5 μM) to the assay plates, in the presence or absence of hedgehog protein (octyl-modified version; 1-5 ng/ml). After another 24 hrs of incubation, the media from the assay plates is discarded and replaced with luciferase assay-mix. Subsequently, plates are incubated at RT for ˜15-30 mins and then read in a luminometer. [note: addition of the Hedgehog protein, although not critical, will sensitize the assay allowing the identification of weak actives].

Assay [3] deals with sonic hedgehog pathway. The experiment in a line: Human hedgehog reporter assay HEPM-GliLuc (HGL). The settings on record: HepM human embryonic palatal mesenchymal cells, Gli-luciferase reporter. Summed up:
as §1

The mark [4] stands for this setting: read-out: Human Daoy (Gli-Luc) Avg. EC50.

`CN[C@H]1CC[C@@H](N(Cc2cc(-c3ccncc3)ccc2O)C(=O)c2sc3c(F)ccc(F)c3c2Cl)CC1` [Compound 368, 3-Chloro-4,7-difluoro-benzo[b]thiophene-2-carboxylic acid (2-hydroxy-5-pyridin-4-yl-benzyl)-(4-methylamino-cyclohexyl)-amide dihydrochloride]: the EC50 in the assay on sonic hedgehog pathway [1] (read-out: Daoy Avg. EC50), with sonic hedgehog pathway [2] (read-out: S12 Avg. EC50) and in the assay with sonic hedgehog pathway [3] was less than 50 nM in each case.
Regarding `CNC1CCC(N(Cc2cc(-c3ccncc3F)ccc2OC)C(=O)c2sc3c(F)ccc(F)c3c2Cl)CC1` (stereo not drawn) [Compound 386, 3-Chloro-4,7-difluoro-benzo[b]thiophene-2-carboxylic acid [5-(3-fluoro-pyridin-4-yl)-2-methoxy-benzyl]-(4-methylamino-cyclohexyl)-amide], the EC50 in the assay on sonic hedgehog pathway [1] (setting [4]) and with sonic hedgehog pathway [2] (read-out: Mouse S12 Avg. EC50) was less than 50 nM throughout.
For `CNC1CCC(N(Cc2cc(-c3ccncc3F)ccc2OC)C(=O)c2sc3cccc(F)c3c2Cl)CC1` (stereo not drawn) [Compound 387, 3-Chloro-4-fluoro-benzo[b]thiophene-2-carboxylic acid [5-(3-fluoro-pyridin-4-yl)-2-methoxy-benzyl]-(4-methylamino-cyclohexyl)-amide], the EC50 in the assay with sonic hedgehog pathway [1] (setting [4]) and in the assay with sonic hedgehog pathway [2] (read-out: Mouse S12 Avg. EC50) was less than 50 nM each time.
In the case of `CN[C@H]1CC[C@@H](N(Cc2cc(-c3ccc(S(N)(=O)=O)cc3)ccc2OC)C(=O)c2sc3c(F)ccc(F)c3c2Cl)CC1` [Compound 388, 3-Chloro-4,7-difluoro-benzo[b]thiophene-2-carboxylic acid (4-methoxy-4′-sulfamoyl-biphenyl-3-ylmethyl)-(4-methylamino-cyclohexyl)-amide hydrochloride], the EC50 with sonic hedgehog pathway [1] (setting [4]) and with sonic hedgehog pathway [2] (read-out: Mouse S12 Avg. EC50) was less than 50 nM each time.
For the compound `CCS(=O)(=O)c1ccc(-c2ccc(OC)c(CN(C(=O)c3sc4c(F)ccc(F)c4c3Cl)[C@H]3CC[C@@H](NC)CC3)c2)cc1` [Compound 389, 3-Chloro-4,7-difluoro-benzo[b]thiophene-2-carboxylic acid (4′-ethanesulfonyl-4-methoxy-biphenyl-3-ylmethyl)-(4-methylamino-cyclohexyl)-amide hydrochloride], the EC50 in the assay with sonic hedgehog pathway [1] (setting [4]) and in the assay on sonic hedgehog pathway [2] (read-out: Mouse S12 Avg. EC50) was less than 50 nM in each case.
Regarding `COc1ccc(-c2ccc(S(C)(=O)=O)cc2)cc1CN(C(=O)c1sc2c(F)ccc(F)c2c1Cl)[C@H]1CC[C@@H](N)CC1` [Compound 390, 3-Chloro-4,7-difluoro-benzo[b]thiophene-2-carboxylic acid (4-amino-cyclohexyl)-(4′-methanesulfonyl-4-methoxy-biphenyl-3-ylmethyl)-amide hydrochloride], the EC50 in the assay on sonic hedgehog pathway [1] (setting [4]) and with sonic hedgehog pathway [2] (read-out: Mouse S12 Avg. EC50) was less than 50 nM throughout.
`CN[C@H]1CC[C@@H](N(Cc2cc(-c3ccc(S(=O)(=O)N(C)C)cc3)ccc2OC)C(=O)c2sc3c(F)ccc(F)c3c2Cl)CC1` [Compound 391, 3-Chloro-4,7-difluoro-benzo[b]thiophene-2-carboxylic acid (4′-dimethylsulfamoyl-4-methoxy-biphenyl-3-ylmethyl)-(4-methylamino-cyclohexyl)-amide trifluoroacetate]: the EC50 in the assay on sonic hedgehog pathway [1] (setting [4]) and in the assay on sonic hedgehog pathway [2] (read-out: Mouse S12 Avg. EC50) was less than 50 nM throughout.
As to `CN[C@H]1CC[C@@H](N(Cc2cc(-c3ccncc3)ccc2C)C(=O)c2sc3c(F)ccc(F)c3c2Cl)CC1` [Compound 392, 3-Chloro-4,7-difluoro-benzo[b]thiophene-2-carboxylic acid (4-methylamino-cyclohexyl)-(2-methyl-5-pyridin-4-yl-benzyl)-amide bis(trifluoroacetate)], the EC50 with sonic hedgehog pathway [1] (setting [4]) and with sonic hedgehog pathway [2] (read-out: Mouse S12 Avg. EC50) was less than 50 nM in each case.
For `C=Cc1ccc(-c2ccc(OC)c(CN(C(=O)c3sc4c(F)ccc(F)c4c3Cl)[C@H]3CC[C@@H](N)CC3)c2)cc1` [Compound 393, N-((1r,4r)-4-aminocyclohexyl)-3-chloro-4,7-difluoro-N-((4-methoxy-4′-vinylbiphenyl-3-yl)methyl)benzo[b]thiophene-2-carboxamide], the EC50 in the assay with sonic hedgehog pathway [1] (setting [4]) and in the assay with sonic hedgehog pathway [2] (read-out: Mouse S12 Avg. EC50) was 50 to 250 nM each time.
Take `CN[C@H]1CC[C@@H](N(Cc2cc(OC)cc(-c3ccncc3)c2)C(=O)c2sc3c(F)ccc(F)c3c2Cl)CC1` [Compound 394, 3-Chloro-4,7-difluoro-benzo[b]thiophene-2-carboxylic acid (3-methoxy-5-pyridin-4-yl-benzyl)-(4-methylamino-cyclohexyl)-amide bis(trifluoroacetate)]: the EC50 with sonic hedgehog pathway [1] (setting [4]) and with sonic hedgehog pathway [2] (read-out: Mouse S12 Avg. EC50) was less than 50 nM throughout.
In the case of `CCc1ccc(-c2ccncc2)cc1CN(C(=O)c1sc2c(F)ccc(F)c2c1Cl)[C@H]1CC[C@@H](NC)CC1` [Compound 395, 3-Chloro-4,7-difluoro-benzo[b]thiophene-2-carboxylic acid (2-ethyl-5-pyridin-4-yl-benzyl)-(4-methylamino-cyclohexyl)-amide dihydrochloride], the EC50 in the assay on sonic hedgehog pathway [1] (setting [4]) and in the assay on sonic hedgehog pathway [2] (read-out: Mouse S12 Avg. EC50) was 50 to 250 nM throughout.
Consider `CN[C@H]1CC[C@H](N(Cc2cc(-c3ccccc3SC)ccc2OC)C(=O)c2sc3c(F)ccc(F)c3c2Cl)CC1` [Compound 408, 3-Chloro-4,7-difluoro-benzo[b]thiophene-2-carboxylic acid (4-methoxy-2′-methylsulfanyl-biphenyl-3-ylmethyl)-(4-methylamino-cyclohexyl)-amide hydrochloride], for which the EC50 with sonic hedgehog pathway [1] (read-out: Daoy Avg. EC50) and in the assay on sonic hedgehog pathway [2] (read-out: S12 Avg. EC50) was 250 to 1000 nM throughout.
As for `CN[C@H]1CC[C@H](N(Cc2cc(-c3ccccc3[S+](C)[O-])ccc2OC)C(=O)c2sc3c(F)ccc(F)c3c2Cl)CC1` (stereo partly drawn) [Compound 409, 3-Chloro-4,7-difluoro-benzo[b]thiophene-2-carboxylic acid (2′-methanesulfinyl-4-methoxy-biphenyl-3-ylmethyl)-(4-methylamino-cyclohexyl)-amide trifluoroacetate], the EC50 in the assay with sonic hedgehog pathway [1] (read-out: Daoy Avg. EC50) was 1000 to 2500 nM; with sonic hedgehog pathway [2] (read-out: S12 Avg. EC50), 250 to 1000 nM.
As to `COc1ccc(-c2cccnc2)cc1CN(C(=O)c1sc2cccc(F)c2c1Cl)[C@H]1CC[C@@H](N)CC1` [Compound 410, 3-Chloro-4-fluoro-benzo[b]thiophene-2-carboxylic acid (4-amino-cyclohexyl)-(2-methoxy-5-pyridin-3-yl-benzyl)-amide], the EC50 with sonic hedgehog pathway [1] (read-out: Daoy Avg. EC50) and in the assay with sonic hedgehog pathway [2] (read-out: S12 Avg. EC50) was less than 50 nM each time.
`CN[C@H]1CC[C@H](N(Cc2cc(-c3ccccc3S(C)(=O)=O)ccc2OC)C(=O)c2sc3c(F)ccc(F)c3c2Cl)CC1` [Compound 411, 3-Chloro-4,7-difluoro-benzo[b]thiophene-2-carboxylic acid (2′-methanesulfonyl-4-methoxy-biphenyl-3-ylmethyl)-(4-methylamino-cyclohexyl)-amide hydrochloride]: the figures for the EC50 in the assay with sonic hedgehog pathway [1] (read-out: Daoy Avg. EC50) and in the assay with sonic hedgehog pathway [2] (read-out: S12 Avg. EC50) were 1000 to 2500 nM and 250 to 1000 nM, respectively.
As for `CN[C@H]1CC[C@H](N(Cc2cc(-c3cccc(S(C)(=O)=O)c3)ccc2OC)C(=O)c2sc3c(F)ccc(F)c3c2Cl)CC1` [Compound 412, 3-Chloro-4,7-difluoro-benzo[b]thiophene-2-carboxylic acid (3′-methanesulfonyl-4-methoxy-biphenyl-3-ylmethyl)-(4-methylamino-cyclohexyl)-amide hydrochloride], the EC50 in the assay with sonic hedgehog pathway [1] (read-out: Daoy Avg. EC50) and in the assay on sonic hedgehog pathway [2] (read-out: S12 Avg. EC50) was less than 50 nM each time.
As to `CN[C@H]1CC[C@H](N(Cc2cc(-c3cccnc3OC)ccc2OC)C(=O)c2sc3cccc(F)c3c2Cl)CC1` [Compound 413], the EC50 with sonic hedgehog pathway [1] (read-out: Daoy Avg. EC50) was less than 50 nM; in the assay with sonic hedgehog pathway [2] (read-out: S12 Avg. EC50), 50 to 250 nM.
For `CCOc1cc(-c2ccc(OC)c(CN(C(=O)c3sc4c(F)ccc(F)c4c3Cl)[C@H]3CC[C@H](NC)CC3)c2)ccn1` [Compound 414], in that order: less than 50 nM and 50 to 250 nM.
The matching figures for `CCOc1cc(-c2ccc(OC)c(CN(C(=O)c3sc4cccc(F)c4c3Cl)[C@H]3CC[C@H](NC)CC3)c2)ccn1` [Compound 415]: 50 to 250 nM and 50 to 250 nM.
In the case of `COc1ccc(-c2cncc(F)c2)cc1CN(C(=O)c1sc2c(F)ccc(F)c2c1Cl)[C@H]1CC[C@@H](N)CC1` [Compound 416], the figures for the EC50 in the assay with sonic hedgehog pathway [1] (read-out: Daoy Avg. EC50) and with sonic hedgehog pathway [2] (read-out: S12 Avg. EC50) were 50 to 250 nM and less than 50 nM, respectively.
The matching figures for `COc1ccc(-c2ccncc2F)cc1CN(C(=O)c1sc2c(F)ccc(F)c2c1Cl)[C@H]1CC[C@@H](N)CC1` [Compound 417]: less than 50 nM and less than 50 nM.
For `COc1ccc(-c2cc[n+](C)cc2)cc1CN(C(=O)c1sc2c(F)ccc(F)c2c1Cl)[C@H]1CC[C@@H](N)CC1` [Compound 418], the EC50 was less than 50 nM with sonic hedgehog pathway [1] (read-out: Daoy Avg. EC50) and 1000 to 2500 nM in the assay with sonic hedgehog pathway [2] (read-out: S12 Avg. EC50).
